# Laboratory results as given in publication PMC11995724, “Antibiotic target discovery by integrated phenotypic and activity-based profiling of electrophilic fragments” (Cell chemical biology, 2025).
# Experiment: in vitro
# Conditions: human, hek293t cells
row,Compound,"viability at 48 h, 25 µM"
1,"Cc1cccc(NC(=O)C(C#N)=Cc2cnc3ccc(C#N)cn23)c1 [9-O18, 2-cyano-3-{6-cyanoimidazo[1,2-a]pyridin-3-yl}-N-(3-methylphenyl)prop-2-enamide]",132%
2,"COc1ccc(S(=O)(=O)N2CCOCC2)cc1NC(=O)CCl [4-O04, 2-chloro-N-[2-methoxy-5-(morpholine-4-sulfonyl)phenyl]acetamide]",1.63%
3,"O=C(CCl)Cc1ccc(F)cc1 [10-G15, 1-chloro-3-(4-fluorophenyl)propan-2-one]",73.7%
4,"O=C(CCl)Nc1cc(-n2cnnn2)ccc1Cl [6-A05, 2-chloro-N-[2-chloro-5-(1H-1,2,3,4-tetrazol-1-yl)phenyl]acetamide]",0.726%
5,"Cc1cccc(C)c1NC(=O)CNC(=O)C(C)Cl (stereo not shown) [6-F10, 2-chloro-N-{[(2,6-dimethylphenyl)carbamoyl]methyl}propanamide]",106%
6,"CN1C(=O)C(=C(C#N)C(=O)NCc2ccc(Cl)cc2)c2ccccc21 [8-K17, N-[(4-chlorophenyl)methyl]-2-cyano-2-(1-methyl-2-oxo-2,3-dihydro-1H-indol-3-ylidene)acetamide]",78.3%
7,"C=CC(=O)NCC12CC3CC(CC(C3)C1)C2 [1-F17, N-[(adamantan-1-yl)methyl]prop-2-enamide]",110%
8,"O=C(CCl)NCc1ccc(OC(F)(F)F)cc1 [6-G08, 2-chloro-N-{[4-(trifluoromethoxy)phenyl]methyl}acetamide]",1.3%
9,"N#CC(=Cc1ccc(Cl)cc1)C(=O)Nc1ccc2c(c1)OCCO2 [9-E22, 3-(4-chlorophenyl)-2-cyano-N-(2,3-dihydro-1,4-benzodioxin-6-yl)prop-2-enamide]",106%
10,"C=CC(=O)NC(CN1CCCS1(=O)=O)C1CC1 (stereo not shown) [1-H10, N-[1-cyclopropyl-2-(1,1-dioxo-1lambda6,2-thiazolidin-2-yl)ethyl]prop-2-enamide]",100%
11,"N#CC(=Cc1ccc(OC(F)F)cc1)C(=O)N1CCCCC1 [8-J20, 3-[4-(difluoromethoxy)phenyl]-2-(piperidine-1-carbonyl)prop-2-enenitrile]",82.8%
12,"CC(Cl)C(=O)N1CC(S(=O)(=O)c2ccccc2F)C1 (stereo not shown) [7-M15, 2-chloro-1-[3-(2-fluorobenzenesulfonyl)azetidin-1-yl]propan-1-one]",96.3%
13,"CC(Cl)C(=O)NCCn1cccc1 (stereo not shown) [7-G21, 2-chloro-N-[2-(1H-pyrrol-1-yl)ethyl]propanamide]",87.8%
14,"Cc1c(C(=O)N2CCN(C(=O)C(C)Cl)CC2)sc2ccccc12 (stereo not shown) [7-H09, 2-chloro-1-[4-(3-methyl-1-benzothiophene-2-carbonyl)piperazin-1-yl]propan-1-one]",88.8%
15,"CN1c2ccccc2C(NC(=O)CCl)CS1(=O)=O (stereo not shown) [7-L04, 2-chloro-N-(1-methyl-2,2-dioxo-3,4-dihydro-1H-2lambda6,1-benzothiazin-4-yl)acetamide]",0.505%
16,"C=CC(=O)NCCC(=O)N1CCC2(CC(=O)c3ccccc3O2)C1 (stereo not shown) [1-F12, N-(3-oxo-3-{4-oxo-3,4-dihydrospiro[1-benzopyran-2,3'-pyrrolidin]-1'-yl}propyl)prop-2-enamide]",82.1%
17,"CC(=Cc1ccccc1)C=C(C#N)C(=O)Nc1nccs1 [8-F08, 2-cyano-4-methyl-5-phenyl-N-(1,3-thiazol-2-yl)penta-2,4-dienamide]",84.2%
18,"CCOC(=O)c1c(NC(=O)CCl)sc2c1CCCC2 [6-I11, ethyl 2-(2-chloroacetamido)-4,5,6,7-tetrahydro-1-benzothiophene-3-carboxylate]",44.9%
19,"C=CC(=O)NC(C)(C)c1noc(CCC)n1 [1-N10, N-[2-(5-propyl-1,2,4-oxadiazol-3-yl)propan-2-yl]prop-2-enamide]",91.9%
20,"N#CC(C(=O)CCl)=C1NC(=O)c2ccccc2N1 [10-P14, 4-chloro-3-oxo-2-(4-oxo-1,2,3,4-tetrahydroquinazolin-2-ylidene)butanenitrile]",110%
21,"Cc1ccc(NC(=O)C(C#N)=Cc2ccc(C(C)(C)C)cc2)cc1C [9-E04, 3-(4-tert-butylphenyl)-2-cyano-N-(3,4-dimethylphenyl)prop-2-enamide]",104%
22,"C=CC(=O)N1CCOCC1c1cc(F)cc(F)c1 (stereo not shown) [2-O16, 1-[3-(3,5-difluorophenyl)morpholin-4-yl]prop-2-en-1-one]",81.8%
23,"C=CC(=O)Nc1cc(NC(=O)[C@@H]2CSCN2C(=O)CC)ccc1F [2-P18, (4R)-N-[4-fluoro-3-(prop-2-enamido)phenyl]-3-propanoyl-1,3-thiazolidine-4-carboxamide]",91.2%
24,"Cc1ncccc1OCC1CCCN1C(=O)C(C)Cl (stereo not shown) [7-C18, 2-chloro-1-(2-{[(2-methylpyridin-3-yl)oxy]methyl}pyrrolidin-1-yl)propan-1-one]",76.6%
25,"CC(Cl)C(=O)NC1CCN(S(=O)(=O)c2cnn(C)c2)CC1 (stereo not shown) [7-O05, 2-chloro-N-{1-[(1-methyl-1H-pyrazol-4-yl)sulfonyl]piperidin-4-yl}propanamide]",113%
26,"COc1ccc(NC(=O)C(C#N)=Cc2cccs2)cc1 [8-O14, 2-cyano-N-(4-methoxyphenyl)-3-(thiophen-2-yl)prop-2-enamide]",75.7%

row,Compound,"viability at 48 h, 25 µM"
1,"C=CC(=O)NCc1ccc(F)c(F)c1 [1-C10, N-[(3,4-difluorophenyl)methyl]prop-2-enamide]",49.1%
2,"CCOc1cc(C=C(C#N)C(=O)Nc2nccs2)cc(Cl)c1O [9-K22, 3-(3-chloro-5-ethoxy-4-hydroxyphenyl)-2-cyano-N-(1,3-thiazol-2-yl)prop-2-enamide]",110%
3,"CC(Cl)C(=O)NCCc1nnc(C(C)C)s1 (stereo not shown) [7-E03, 2-chloro-N-{2-[5-(propan-2-yl)-1,3,4-thiadiazol-2-yl]ethyl}propanamide]",123%
4,"COc1ccc(N(C(=O)CCl)C2CCS(=O)(=O)C2)cc1 (stereo not shown) [5-I20, 2-chloro-N-(1,1-dioxo-1lambda6-thiolan-3-yl)-N-(4-methoxyphenyl)acetamide]",2.54%
5,"C=CC(=O)Nc1ccccc1CCSC [1-A19, N-{2-[2-(methylsulfanyl)ethyl]phenyl}prop-2-enamide]",93.5%
6,"CC(C)N(Cc1ccccc1)C(=O)CCl [5-J20, N-benzyl-2-chloro-N-(propan-2-yl)acetamide]",1.21%
7,"CC(NC(=O)CCl)c1cc(C(F)(F)F)[nH]n1 (stereo not shown) [5-P11, 2-chloro-N-{1-[5-(trifluoromethyl)-1H-pyrazol-3-yl]ethyl}acetamide]",0.786%
8,"CCc1nocc1CN(C)C(=O)CCl [5-B11, 2-chloro-N-[(3-ethyl-1,2-oxazol-4-yl)methyl]-N-methylacetamide]",1.49%
9,"CC(Cl)C(=O)Nc1cc(C(F)(F)F)ccc1Cl (stereo not shown) [4-N15, 2-chloro-N-[2-chloro-5-(trifluoromethyl)phenyl]propanamide]",83.3%
10,"C=CC(=O)N(CC)CC(=O)N1CCCC(F)(F)C1 [2-G14, N-[2-(3,3-difluoropiperidin-1-yl)-2-oxoethyl]-N-ethylprop-2-enamide]",97.5%
11,"CC(Cl)C(=O)N(Cc1ccccc1)C1C=CS(=O)(=O)C1 (stereo not shown) [6-D22, N-benzyl-2-chloro-N-(1,1-dioxo-2,3-dihydro-1lambda6-thiophen-3-yl)propanamide]",98%
12,"CCCCNC(=O)C(C#N)=Cc1cccc2ccccc12 [8-N13, N-butyl-2-cyano-3-(naphthalen-1-yl)prop-2-enamide]",112%
13,"C=CC(=O)N1CCCn2ncc(C3CC3)c21 [3-M15, 1-{3-cyclopropyl-4H,5H,6H,7H-pyrazolo[1,5-a]pyrimidin-4-yl}prop-2-en-1-one]",1.25%
14,"C=CC(=O)Nc1ccc(-c2nc3cc(C)ccc3o2)cc1 [1-D20, N-[4-(5-methyl-1,3-benzoxazol-2-yl)phenyl]prop-2-enamide]",1.53%
15,"CCN(Cc1ccccc1)C(=O)CCl [6-O21, N-benzyl-2-chloro-N-ethylacetamide]",1.53%
16,"CC(Cl)C(=O)N1CCC(n2ncc3ccccc32)C1 (stereo not shown) [7-K04, 2-chloro-1-[3-(1H-indazol-1-yl)pyrrolidin-1-yl]propan-1-one]",92.4%
17,"N#CC(=CC1=Cc2ccccc2OC1)C(=O)NCc1ccccc1 [9-F08, N-benzyl-3-(2H-chromen-3-yl)-2-cyanoprop-2-enamide]",114%
18,"COc1ccccc1NC(=O)C(C#N)=Cc1ccc(F)cc1 [8-E18, 2-cyano-3-(4-fluorophenyl)-N-(2-methoxyphenyl)prop-2-enamide]",81%
19,"CC(c1ccccc1F)N1CCCC(NC(=O)CCl)C1=O (stereo not shown) [5-I10, 2-chloro-N-{1-[1-(2-fluorophenyl)ethyl]-2-oxopiperidin-3-yl}acetamide]",80.5%
20,"C=CC(=O)N1CCC(Cn2nc(C)cc2C)CC1 [2-C17, 1-{4-[(3,5-dimethyl-1H-pyrazol-1-yl)methyl]piperidin-1-yl}prop-2-en-1-one]",182%
21,"CC(Cl)C(=O)NC1CCN(S(C)(=O)=O)C1 (stereo not shown) [7-I15, 2-chloro-N-(1-methanesulfonylpyrrolidin-3-yl)propanamide]",94.9%
22,"Cc1c(C#N)c(NC(=O)CCl)n(Cc2ccc(F)cc2)c1C [4-O21, 2-chloro-N-{3-cyano-1-[(4-fluorophenyl)methyl]-4,5-dimethyl-1H-pyrrol-2-yl}acetamide]",0.102%
23,"C=CC(=O)NCc1ccc(C(=O)N2CCCC2C(=O)N(C)C)cc1 (stereo not shown) [2-D22, N,N-dimethyl-1-{4-[(prop-2-enamido)methyl]benzoyl}pyrrolidine-2-carboxamide]",71.2%
24,"C=CC(=O)N1CCC(S(=O)(=O)NC(C)C)C1 (stereo not shown) [1-D19, 1-(prop-2-enoyl)-N-(propan-2-yl)pyrrolidine-3-sulfonamide]",218%
25,"C=CC(=O)NCC1CCc2cccnc21 (stereo not shown) [3-M07, N-({5H,6H,7H-cyclopenta[b]pyridin-7-yl}methyl)prop-2-enamide]",47.8%
26,"C=CC(=O)NCCC(=O)NC1CCSc2ccc(F)cc21 (stereo not shown) [3-D08, N-{2-[(6-fluoro-3,4-dihydro-2H-1-benzothiopyran-4-yl)carbamoyl]ethyl}prop-2-enamide]",70.7%
